# Reference: patent publication US20240262806A1, “INHIBITORS OF NLRP3” (PTC THERAPEUTICS, INC., priority 2021, published 2024)
# Like-named read-outs stand apart in the source and are kept apart here.
# Test system: NLRP3 inflammasome
# Experiment: IL-1β Secretion Assay (NLRP3-dependent IL-1β secretion in PMA-differentiated THP-1 cells, nigericin activation, HTRF)
# Assay type: cell-based
# Settings: 100 ng/mL PMA 24 h, compound 20 h, 2.5 μM Nigericin 3 h, read-out: IC50 IL-1β Inhibition
# How it was run: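 IL-1β release, quantified by HTRF after nigericin activation of the NLRP3 inflammasome, was the read-out. A logistic fit of percent inhibition gave IC50.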
# [1] = Homo sapiens, THP-1, THP-1 cells
SMILES,IC50 [1] [nM],IC50 (THP-1 cells) [nM]
Cc1cc(O)c(-c2nnc(N[C@@H]3CCCN(CC(F)(F)F)C3)n3cccc23)c(F)c1 [Compound I-570],1 to 10,–
Cc1cc2c(-c3c(O)cc(C(F)(F)F)cc3F)nnc(N[C@@H]3CCCN(C)C3)n2c1 [Compound I-607],< 1,–
Oc1cc(C(F)(F)F)cc(F)c1-c1nnc(N[C@@H]2CCCN(C3CCOC3)C2)n2cccc12 (stereo partly shown) [Compound I-447],1 to 10,–
CN1CCOCC(Nc2nnc(-c3ccc(C(F)(F)F)cc3O)c3cnccc23)C1 (stereo not shown) [Compound I-260],10 to 100,–
OCCN1CCC[C@@H](Nc2nnc(-c3ccc(C(F)(F)F)cc3O)c3ccncc23)C1 [Compound I-55],< 1,–
COc1cc(O)c(-c2nnc(N[C@@H]3CCCN(C)C3)n3cccc23)c(F)c1 [Compound I-456],< 1,–
CN1CCCC(Nc2nnc(-c3ccc(C(F)(F)F)cc3O)c3ccncc23)CC1 (stereo not shown) [Compound I-263],1 to 10,–
CN1C[C@H](F)C[C@@H](Nc2nnc(-c3ccc(C(F)(F)F)cc3O)c3cccn23)C1 [Compound I-410],1 to 10,–
CCN1CCC[C@@H](Nc2nnc(-c3ccc(OC(F)(F)F)cc3O)c3cccn23)C1 [Compound I-609],1 to 10,–
"Cc1cc2c(-c3ccc(C4CC4)cc3OC(F)(F)F)nnc(N[C@@H]3CCCN(C)C3)n2n1 [Compound I-419, (R)-4-(4-Cyclopropyl-2-(trifluoromethoxy)phenyl)-2-methyl-N-(1-methylpiperidin-3-yl)pyrazolo[1,5-d][1,2,4]triazin-7-amine]",–,10 to 100
FC(F)Oc1cc(C(F)(F)F)ccc1-c1nnc(N[C@H]2CCOC2)n2cccc12 [Compound I-458],100 to 300,–
Cc1ccc(-c2nnc(N[C@@H]3CCCN(C)C3)n3cccc23)c(O)c1 [Compound I-337],1 to 10,–
C[C@]1(O)C[C@@H](Nc2nnc(-c3ccc(C(F)(F)F)cc3C(F)F)c3cccn23)C1 [Compound I-427],10 to 100,–
CN1CCC[C@@H](Nc2nnc(-c3ccc(Cl)cc3C(F)(F)F)c3ccncc23)C1 [Compound I-289],1 to 10,–
Oc1cc(C(F)(F)F)ccc1-c1nnc(N[C@@H]2CCCOC2)n2cccc12 [Compound I-401],100 to 300,–
CN1CCC[C@@H](Nc2nnc(-c3ccc(OC(F)(F)F)cc3C(F)F)c3ccncc23)C1 [Compound I-319],1 to 10,–
Oc1cc(C(F)(F)F)ccc1-c1nnc(N[C@@H]2CCCOC2)n2cncc12 [Compound I-397],10 to 100,–
CN1CCC[C@@H](Nc2nnc(-c3ccc(C4=CCOC4)cc3O)c3ccccc23)C1 [Compound I-57],1 to 10,–
Cc1cc2c(-c3c(O)cc(Cl)cc3F)nnc(N[C@@H]3CCCN(C)C3)n2n1 [Compound I-455],< 1,–
"CN1CCC[C@@H](Nc2nnc(-c3ccc(C(F)(F)F)cc3O)c3cnn(C)c23)C1 [Compound I-146, 2-[1-Methyl-7-[[(3R)-1-methyl-3-piperidyl]amino]pyrazolo[3,4-d]pyridazin-4-yl]-5-(trifluoromethyl)phenol]",< 1,–
CC(C)(O)CN1CCC[C@@H](Nc2nnc(-c3c(O)cc(C(F)(F)F)cc3F)c3cccn23)C1 [Compound I-417],1 to 10,–
CC(C)N1CCC[C@@H](Nc2nnc(-c3ccc(Cl)cc3O)c3cccn23)C1 [Compound I-404],< 1,–
Oc1cc(C(F)(F)F)ccc1-c1nnc(N[C@@H]2CCCN(CC(F)F)C2)n2cccc12 [Compound I-412],< 1,–
Cc1cc2c(-c3c(O)cc(C(F)(F)F)cc3F)nnc(N[C@@H]3CCCN(C)C3)n2n1 [Compound I-363],< 1,–
CC1(C)CCc2c(N[C@@H]3CCCNC3)nnc(-c3ccc(C(F)(F)F)cc3O)c21 [Compound I-45],1 to 10,–
CO[C@H]1CCC[C@@H](Nc2nnc(-c3ccc(C(F)(F)F)cc3O)c3cccn23)C1 [Compound I-400],100 to 300,–
CN1CCCCC1CNc1nnc(-c2ccc(C(F)(F)F)cc2O)c2ccncc12 (stereo not shown) [Compound I-243],1 to 10,–
CN1CCC[C@@H](Nc2nnc(-c3ccccc3OC(F)F)c3c2CCC3)C1 [Compound I-245],1 to 10,–
